Test results published in US9351941B2, “Radiofrequency-induced synchronization of in situ hyperthermia and chemotherapy via magnetic-nanoconjugates” (National Cheng Kung University, priority 2012, dated 2016).

Tested on: tumor
Assay: targeting hyperthermia and chemotherapy through tail vein injection with RF treatment (FIG. 8)
Type: in vivo, C3H/HeN mice
Conditions: 5-FU injection alone, 770 nM, equivalent to total nanoparticle loaded drugs
Experimental: In addition, in an embodiment according to the present invention, targeting hyperthermia and chemotherapy through tail vein injection of the 5-FU-loaded Fe3O4@anti-HER2 nanoparticle (500 μg/mL) in a serial single daily dose for four consecutive days are evaluated. RF treatments are given 24 h after the nanoparticle had been injected. […] This indicates nanoparticle accumulation within tumor dissipate sufficient heat to generate hyperthermia effect.
Groups of male C3H/HeN mice 6-8 weeks old in this experiment were given a tail-vein injection of 200 μL 5-FU-loaded Fe3O4@anti-HER2 magnetic nanoparticle in PBS ([…]) or of PBS alone. One group of mice was sacrificed 24 h after the tail-vein injection. The rest of the mice were given 15 min RF treatment 24 h after the tail-vein injection. Twenty-four hours after the RF treatment, the mice were overdosed with the anesthetics ketamine and xylazine (8.7 mg/100 g and 1.3 mg/100 g), and their major organs (brain, heart, lungs, spleen, liver, kidneys) and blood were collected. Each organ was homogenized and dissolved in nitro-hydrochloric acid. The sample solutions were continuously shaken for two days to ensure Fe dissociation. All samples were filtered before analyzed using atomic absorption spectrometer (Solar M6 series; Unicam, UK). […]

In the case of `O=c1[nH]cc(F)c(=O)[nH]1` [5-FU, 5-fluorouracil], the tumor growth is reported as “unable to suppress tumor growth”.
